Columns and labels:
[1] = tested on: inner ear cells derived from iPS cells of patients with Pendred syndrome; assay: Apoptosis under epoxomicin cellular stress (Cleaved caspase 3 staining of pendrin-positive cells); assay type: cell-based, human
Procedure: Pendrin-positive cells were induced from iPS cells derived from patients and iPS/ES cells derived from healthy subjects using the above method. The differentiation-induced cells were subjected to the following treatment. In the rapamycin administration group, rapamycin was administered for 3 days. In the cellular stress/rapamycin group, rapamycin (0.2 nM) was administered for 2 days and then epoxomicin (0.5 μM) was administered as cellular stress for 24 hours along with rapamycin. In the cellular stress group, DMSO was administered for 2 days and then only epoxomicin (0.5 μM) was administered as cellular stress for 24 hours. For fluorescent antibody staining, goat anti-pendrin antibody and rabbit anti-Cleaved Caspase 3 antibody were added (1:100 and 1:300, respectively) to the fixed cells on glass slides after antigen retrieval. Cell nuclei were then stained with Hoechst 33258 (diluted 1:1000). […] Pendrin-positive cells were induced from iPS cells derived from patients and iPS/ES cells derived from healthy subjects using the above method. The differentiation-induced cells were subjected to the following. In the rapamycin administration group, rapamycin was administered for 3 days. In the cellular stress/rapamycin group, rapamycin (0.2 nM) was administered for 2 days and then epoxomicin (0.5 μM) was administered as cellular stress for 24 hours along with rapamycin. In the cellular stress group, DMSO was administered for 2 days and then only epoxomicin (0.5 μM) was administered as cellular stress for 24 hours. […] For fluorescent antibody staining, goat anti-pendrin antibody and rabbit anti-Cleaved Caspase 3 antibody were added (1:100 and 1:300, respectively) to the fixed cells on glass slides after antigen retrieval. Cell nuclei were then stained with Hoechst 33258 (diluted 1:1000). […] Pendrin-positive cells were induced from iPS cells derived from patients and iPS/ES cells derived from healthy subjects using the above method. The differentiation-induced cells were subjected to the following treatment. In the calpeptin administration group, calpeptin was administered for 3 days. […]

[2] = tested on: inner ear cells derived from iPS cells of patients with Pendred syndrome; assay: Measurement of cell viability under epoxomicin cellular stress (count of cells positive for pendrin but negative for Cleaved caspase 3); assay type: cell-based, human
Procedure: Pendrin-positive cells were induced from iPS cells derived from patients and iPS/ES cells derived from healthy subjects using the above method. The differentiation-induced cells were subjected to the following treatment. In the rapamycin administration group, rapamycin was administered for 3 days. In the cellular stress/rapamycin group, rapamycin (0.2 nM) was administered for 2 days and then epoxomicin (0.5 μM) was administered as cellular stress for 24 hours along with rapamycin. In the cellular stress group, DMSO was administered for 2 days and then only epoxomicin (0.5 μM) was administered as cellular stress for 24 hours. For fluorescent antibody staining, goat anti-pendrin antibody and rabbit anti-Cleaved Caspase 3 antibody were added (1:100 and 1:300, respectively) to the fixed cells on glass slides after antigen retrieval. Cell nuclei were then stained with Hoechst 33258 (diluted 1:1000). […] Pendrin-positive cells were induced from iPS cells derived from patients and iPS/ES cells derived from healthy subjects using the above method. The differentiation-induced cells were subjected to the following treatment. In the rapamycin administration group, rapamycin was administered for 3 days. In the cellular stress/rapamycin group, rapamycin (0.2 nM) was administered for 2 days and then epoxomicin (0.5 μM) was administered as cellular stress for 24 hours along with rapamycin. […]

neurons = settings: stated as known; cited from earlier work
[3] = tested on: differentiation-induced inner ear sensory epithelial cells; assay: Administration of gentamicin to differentiation-induced inner ear sensory epithelial cells (cytotoxicity, number of cells); assay type: cell-based, human; settings: gentamicin injection diluted 80 times, administered for 10 days; FIG. 7
Procedure: (1-5) Administration of Gentamicin Known to Have Inner Ear Toxicity to Differentiation-Induced Inner Ear Sensory Epithelial Cells
A gentamicin injection diluted 80 times was administered for 10 days to the inner ear sensory epithelial cells whose differentiation had been induced using this method.

## CN(C)C(=N)NC(=N)N [metformin]
[1]; 1 mM or 10 mM metformin for 2 days, then epoxomicin 0.5 μM for 24 hours along with metformin, FIG. 13
  apoptosis when cells are stressed: inhibits apoptosis
[2]; 1 mM or 10 mM metformin for 2 days, then epoxomicin 0.5 μM for 24 hours along with metformin, FIG. 12
  decrease in the cell viability when cells are stressed: suppresses the decrease in the cell viability

## CO[C@H]1C[C@@H]2CC[C@@H](C)[C@@](O)(O2)C(=O)C(=O)N2CCCC[C@H]2C(=O)O[C@H]([C@H](C)C[C@@H]2CC[C@@H](O)[C@H](OC)C2)CC(=O)[C@H](C)/C=C(\C)[C@@H](O)[C@@H](OC)C(=O)[C@H](C)C[C@H](C)/C=C/C=C/C=C/1C [rapamycin]
[1]; rapamycin 0.2 nM for 2 days, then epoxomicin 0.5 μM for 24 hours along with rapamycin, FIG. 11
  apoptosis when cells are stressed (cells positive for pendrin and Cleaved caspase 3): inhibits such apoptosis
[2]; rapamycin 0.2 nM for 2 days, then epoxomicin 0.5 μM for 24 hours along with rapamycin, FIG. 10
  decrease in cell viabilities when cells are stressed: suppresses decrease in cell viabilities

## CCCC[C@@H](C=O)NC(=O)[C@H](CC(C)C)NC(=O)OCc1ccccc1 [Calpeptin]
[1]; calpeptin 0.5 nM for 2 days, then epoxomicin 0.5 μM for 24 hours along with calpeptin, FIG. 14, reference example
  apoptosis when cells are stressed: cannot inhibit apoptosis
neurons
  apoptosis of neurons in neurodegenerative diseases and the like: known to inhibit apoptosis of neurons

## gentamicin
[3]
  number of cells as compared with a control group (cytotoxicity): significantly decreased

Source: patent US11013725B2, “Therapeutic agents for inner ear hearing impairment” (Keio University, priority 2015, dated 2021)
